Results: patent publication US20020193425A1, “Cancer chemopreventative compounds and compositions and methods of treating cancers” (priority 2001, published 2002)
≈ marks a conversion by molar mass, not a printed value. Read-outs that look alike come from different tables or passages of the source.

Legend:
HL-60 [1] = assay: Cytotoxicity, viability by Trypan blue exclusion; conditions: four days
Experimental: (§8) HL-60, K562, U937, Reh and Daudi cells were obtained from the American Type Culture Collection (Rockville, Md.). Kasumi-1, NB4, BV173, SUPB13, and RS4;11 cells were provided by the Section of Hematology/Oncology, University of Illinois College of Medicine, Chicago, Ill. All cell lines were maintained in suspension culture using RPMI 1640 medium supplemented with 10% heat-inactivated fetal bovine serum, 100 units of penicillin/ml and 100 μg of streptomycin/ml at 37° C. in a humidified atmosphere of 5% CO2 in air. All cells were routinely tested for mycoplasma contamination.
(§9) Cellular viability was monitored by Trypan blue exclusion. Inhibition of [3H]thymidine incorporation into DNA was determined to assess the level of cell proliferation as well as DNA synthesis inhibition. […] The filters were counted using a Microbeta™ liquid scintillation counter (Wallac, Turku, Finland) with scintillation fluid. Finally, the percentage of [3H]thymidine incorporation per 10^6 cells was calculated by dividing the dpm of sample-treated cells by the dpm of DMSO-treated cells.
(§10) ^aViability was determined by Trypan blue exclusion in duplicate samples. […] Results are expressed as median inhibitory cell concentrations of two independent experiments (±standard deviations).

[2] = Cytotoxicity, viability by Trypan blue exclusion; conditions: human, HL-60 cells, Cytotoxicity (IC50, ng/ml), four days
Experimental: as §8, §9, §10

Kasumi-1 [3] = assay: Cytotoxicity, viability by Trypan blue exclusion; conditions: four days
Experimental: as §8, §9, §10

[4] = Cytotoxicity, viability by Trypan blue exclusion; conditions: human, Kasumi-1 cells, Cytotoxicity (IC50, ng/ml), four days
Experimental: as §8, §9, §10

SUPB13 = assay: Cell cycle effects, DNA content by flow cytometry; assay type: cell-based; conditions: Brusatol (25 ng/ml), 24 h
Experimental: (§1) About 10^6 cells from each sample were collected and washed twice with ice-cold PBS, fixed in 70% ethanol, and stored at 4° C. until analysis. The cells were stained with PI (50 μg/ml), treated with DNase-free RNase (10 μg/ml), and subjected to DNA content analysis using an EPICS Coulter flow cytometer. At least 10,000 cells were counted for each sample. The percentage of apoptotic cells was calculated by measuring the area under the sub-diploid (DNA <2 N) peak in the plot of cell number against cellular DNA content.
(§2) Cells were treated with solvent or brusatol (25 ng/ml) for 24 h, fixed in ethanol and stained with PI for flow cytometric analysis as described under “Materials and methods”. At least 10,000 cells were counted. Results are presented as the mean of triplicate samples (±standard deviation). G1=Gap1, S=Synthesis, G2/M=Gap2+Mitosis, Ap=sub-G1 apoptotic peak.

Kasumi-1 [5] = assay: Cell cycle effects, DNA content by flow cytometry; assay type: cell-based; conditions: Brusatol (25 ng/ml), 24 h
Experimental: as §1, §2

K562 = assay: Cell cycle effects, DNA content by flow cytometry; assay type: cell-based; conditions: Brusatol (25 ng/ml), 24 h
Experimental: as §1, §2

BV173 [6] = assay: Cell cycle effects, DNA content by flow cytometry; assay type: cell-based; conditions: Brusatol (25 ng/ml), 24 h
Experimental: as §1, §2

RS4,11 = assay: Cell cycle effects, DNA content by flow cytometry; assay type: cell-based; conditions: Brusatol (25 ng/ml), 24 h
Experimental: as §1, §2

Reh = assay: Cell cycle effects, DNA content by flow cytometry; assay type: cell-based; conditions: Brusatol (25 ng/ml), 24 h
Experimental: as §1, §2

NB4 [7] = assay: Cell cycle effects, DNA content by flow cytometry; assay type: cell-based; conditions: Brusatol (25 ng/ml), 24 h
Experimental: as §1, §2

U937 = assay: Cell cycle effects, DNA content by flow cytometry; assay type: cell-based; conditions: Brusatol (25 ng/ml), 24 h
Experimental: as §1, §2

BV173 [8] = assay: Cytotoxicity, viability by Trypan blue exclusion; conditions: four days
Experimental: as §8, §9, §10

[9] = Cytotoxicity, viability by Trypan blue exclusion; conditions: human
Experimental: Human blood (20 ml) was collected in heparinized sterile tubes and white blood cells were separated using Ficoll reagent (8 ml/5 ml blood diluted in 15 ml Hank's buffered solution). After centrifugation at low speed (1500 rpm) for 30 min, the white coat was removed and washed 3-times with Hank's buffered solution. The cell pellet was resuspended in RPMI 1640 medium supplemented with 10% FBS. This preparation contained >90% lymphocytes and <5% monocytes, as determined by Wright-Giemsa staining.
as §10

HL-60 [10] = assay: Cell cycle effects, DNA content by flow cytometry; assay type: cell-based, human; conditions: Brusatol (25 ng/ml), 24 h
Experimental: as §1, §2

Daudi = assay: Cytotoxicity, viability by Trypan blue exclusion; assay type: cell-based; conditions: for Cytotoxicity (IC50, ng/ml): Daudi, four days
Source text: (§3) All cells were routinely tested for mycoplasma contamination.
(§4) Cellular viability was monitored by Trypan blue exclusion.

DHL-6 = assay: Cytotoxicity, viability by Trypan blue exclusion; assay type: cell-based; conditions: for Cytotoxicity (IC50, ng/ml): DHL-6, four days
Source text: as §3, §4

[11] = Cytotoxicity, viability by Trypan blue exclusion; assay type: cell-based; conditions: human, NB4; four days; read-out: Cytotoxicity (IC50, ng/ml)
Source text: as §3, §4

NB4 [12] = assay: Cytotoxicity, viability by Trypan blue exclusion; assay type: cell-based
Source text: as §3, §4

JB6 cells = conditions: dose-dependent manner; cited from earlier work
DHL-6 cells = assay: Membrane markers of B-lymphocyte maturation by flow cytometry; assay type: cell-based; conditions: brusatol (5 ng/ml), control 197.5
Experimental: (§5) Cell lines were tested using a 4-day incubation protocol, unless otherwise specified.
(§6) 3) Determination of cell surface antigen by flow cytometry. Cells (10^6) were washed with PBS and then incubated for 30 min at room temperature with respective monoclonal antibodies, washed with 20 volumes of diluent (PBS with 0.1% sodium azide and 1% BSA), and resuspended in 0.5 ml of fresh diluent for evaluation. Necrotic cells were excluded from the analysis by propidium iodide (PI) staining. The following mAbs (Sigma, St. Louis, Mo.) were used to assess the maturation level of myeloid cell lines: antiCD15 (Leu M1), antiCD-11b (OKM1), antiCD14 and antiCD13. The following mAbs (Sigma, St. Louis, Mo.) were used to assess the maturation level of lymphocytic cell lines: antiCD20, antiHLA-DR and antikappa light chain.
(§7) Finally, various membrane markers of B-lymphocyte maturation (i.e., CD20, superficial light chain kappa and HLA-DR) in SUPB13, RS4;11, Reh, Daudi and DHL-6 were analyzed. Few changes were observed, but brusatol induced a small increase in CD20 with DHL-6 cells (197.5 control vs. 225.3 brusatol (5 ng/ml), specific mean fluorescence intensity), and a larger increase of HLA-DR in Daudi cells (92.5 control vs. 244.9 brusatol (10 ng/ml), specific mean fluorescence intensity).

Daudi cells = assay: as above; assay type: cell-based; conditions: brusatol (10 ng/ml), control 92.5
Experimental: as §5, §6, §7

SMILES: COC(=O)[C@@]12OC[C@]34[C@H]([C@@H](O)[C@@H]1O)[C@@]1(C)CC(=O)C(O)=C(C)[C@@H]1C[C@H]3OC(=O)[C@H](OC(=O)C=C(C)C)[C@@H]24 [compound 1, brusatol]
- Cytotoxicity (IC50, ng/ml) (HL-60 [1]): 50 ± 0.9 ng/mL
- IC50 at 4 days [2]: 0.05 to 0.1 µg/mL (≈ 0.0961 to 0.192 µM)
- Cytotoxicity (IC50, ng/ml) (Kasumi-1 [3]): 75 ± 5.1 ng/mL
- IC50 at 4 days [4]: 0.05 to 0.1 µg/mL (≈ 0.0961 to 0.192 µM)
- G1 (SUPB13): G1 = 61.9 ± 2.1
- G2/M (SUPB13): G2/M = 8.7 ± 0.3
- S (SUPB13): S = 29.4 ± 1.8
- G1 (Kasumi-1 [5]): G1 = 77.4 ± 1.8
- G2/M (Kasumi-1 [5]): G2/M = 4.5 ± 0.2
- S (Kasumi-1 [5]): S = 18.1 ± 2.1
- G1 (K562): G1 = 46.2 ± 0.6
- G2/M (K562): G2/M = 5.6 ± 0.4
- S (K562): S = 48.2 ± 0.3
- Ap (sub-G1 apoptotic peak) (BV173 [6]): Ap = 15.6 ± 0.2
- G1 (BV173 [6]): G1 = 57.0 ± 0.4
- G2/M (BV173 [6]): G2/M = 7.1 ± 0.1
- S (BV173 [6]): S = 35.9 ± 0.6
- G1 (RS4,11): G1 = 50.9 ± 0.4
- G2/M (RS4,11): G2/M = 3.4 ± 0.1
- S (RS4,11): S = 45.7 ± 0.2
- G1 (Reh): G1 = 78.8 ± 1.2
- G2/M (Reh): G2/M= 3.2 ± 0.4
- S (Reh): S = 18.0 ± 0.6
- Ap (sub-G1 apoptotic peak) (NB4 [7]): Ap = 37.2 ± 0.8
- G1 (NB4 [7]): G1 = 45.3 ± 0.8
- G2/M (NB4 [7]): G2/M = 7.3 ± 0.7
- S (NB4 [7]): S = 47.4 ± 0.1
- G1 (U937): G1 = 45.4 ± 1.8
- G2/M (U937): G2/M = 8.0 ± 1.6
- S (U937): S = 46.6 ± 0.2
- Cytotoxicity (IC50, ng/ml) (BV173 [8]; listed as Brusatol): 5 ± 1.4 ng/mL
- Cytotoxicity (IC50, ng/ml) (BV173 [8]; listed as brusatol): less than 25 ng/ml
- viability at 3 days, 100 ng/ml ([9]; peripheral blood lymphocytes stimulated with concanavalin A): ~90%
- IC50 at 3 days ([9]; peripheral human lymphocytes): > 0.1 µg/mL
- G1 (HL-60 [10]): G1 = 68.7 ± 0.9
- G2/M (HL-60 [10]): G2/M = 18.3 ± 1.1
- S (HL-60 [10]): S = 13.0 ± 1.0
- Cytotoxicity (IC50, ng/ml) (Daudi; listed as Brusatol): 5 ± 0.3 ng/mL
- Cytotoxicity (IC50, ng/ml) (Daudi; listed as brusatol): less than 25 ng/ml
- cytotoxicity (Daudi; human, 48 h, 25 ng/ml): 100%
- Cytotoxicity (IC50, ng/ml) (DHL-6; listed as Brusatol): 5 ± 0.5 ng/mL
- Cytotoxicity (IC50, ng/ml) (DHL-6; listed as brusatol): less than 25 ng/ml
- cytotoxicity (DHL-6; human, 48 h, 25 ng/ml): 100%
- IC50 at 4 days [11]: < 25 ng/mL
- Cytotoxicity (IC50, ng/ml) (NB4 [12]; NB4, four days): 15 ± 0.2 ng/mL
- cytotoxicity (NB4 [12]; human, 48 h, 25 ng/ml): 100%
- TPA-induced anchorage-independent growth of JB6 cells (JB6 cells): inhibits
- CD20, specific mean fluorescence intensity (DHL-6 cells): 225.3
- HLA-DR, specific mean fluorescence intensity (Daudi cells): 244.9
